Among the data in patent US10407445B2, “Hepatitis C virus inhibitors” (ENANTA PHARMACEUTICALS, INC., priority 2013, dated 2019) are EC50 values, retold here.

Holding throughout (type): cell-based
The subject of test [1] is wild type (wt) HCV genotype 1a replicon. Briefly: Transient replication assay, HCV genotype 1a wild type (wt). The following applies: Hepatitis C virus; HCV genotype 1a replicon wt.
In the next test the test system is GT2a-3a-S52 replicon. Kind of test: Stable replicon assay, comparison to daclatasvir, GT2a-3a-S52. As to conditions: Hepatitis C virus. The text has this:
The plasmid pSG-hRlucNeo-JFH1 was generated from pSG-Neo-JFH1 (Kato et al. 2003, Gastroentrology 125:1808-1817). A fragment containing the JFH-1 5′ NTR-hRluc-Neo gene and two unique restriction sites (AgeI and PmeI) was synthesized (Integrated DNA Technologies, Coralville, Iowa). The resulting plasmid was digested with AgeI and PmeI and the excised fragment (5′NTR-hRluc-Neo) was ligated into pSG-Neo-JFH1 digested with the same enzymes to generate pSG-hRlucNeo-JFH1. To allow expression of heterologous NS5A sequences, an NS5A shuttle vector was generated from pSG-Neo-JFH1, in which the entire coding sequence of NS5A plus the first eight codons of NS5B were replaced with an AfeI restriction site. This was done by Infusion cloning (Clontech, Mountain View, Calif.) from two PCR products that were generated using pSG-Neo-JFH1 as a template and the following primer pairs: […]
Stable HCV replicon cell lines were grown in complete media (Dulbecco's modified Eagle medium [DMEM], 2 mM L-glutamine, 0.1 mM essential amino acids, 1 mM sodium pyruvate, 10% fetal bovine serum) with the addition 500 μg/ml […] (G418). […] For stable and transient replicon assays, luciferase activity of compound-treated cells was measured relative to DMSO-treated cells after 72 h incubation using RENILLA-GLO™ Luciferase Assay (Promega). […]
In general terms: Replicon systems follow genome replication, usually without infectious particles.

For test [2], the system named is HCV genotype 1a replicon, NS5A Q30R Y93H. Kind of test: Transient replication assay, GT1a NS5A Q30R Y93H. As to conditions: Hepatitis C virus.
Test [3] relates to HCV genotype 1a replicon, NS5A P32L. Briefly: Transient replication assay, GT1a NS5A P32L. As to conditions: Hepatitis C virus.
For test [4], the system named is HCV genotype 1a replicon, NS5A M28V. Kind of test: Transient replication assay, GT1a NS5A M28V. The following applies: Hepatitis C virus.
The test system of test [5] is HCV genotype 1a replicon, NS5A K24R. Kind of test: Transient replication assay, GT1a NS5A K24R. The following applies: Hepatitis C virus.
For another test, the system named is GT2a-6a-HK6a replicon. Briefly: Stable replicon assay, comparison to daclatasvir, GT2a-6a-HK6a. As to conditions: Hepatitis C virus. The source says:
The plasmid pSG-hRlucNeo-JFH1 was generated from pSG-Neo-JFH1 (Kato et al. 2003, Gastroentrology 125:1808-1817). A fragment containing the JFH-1 5′ NTR-hRluc-Neo gene and two unique restriction sites (AgeI and PmeI) was synthesized (Integrated DNA Technologies, Coralville, Iowa). The resulting plasmid was digested with AgeI and PmeI and the excised fragment (5′NTR-hRluc-Neo) was ligated into pSG-Neo-JFH1 digested with the same enzymes to generate pSG-hRlucNeo-JFH1. To allow expression of heterologous NS5A sequences, an NS5A shuttle vector was generated from pSG-Neo-JFH1, in which the entire coding sequence of NS5A plus the first eight codons of NS5B were replaced with an AfeI restriction site. This was done by Infusion cloning (Clontech, Mountain View, Calif.) from two PCR products that were generated using pSG-Neo-JFH1 as a template and the following primer pairs:
To express GT6a NS5A chimeric sequences a JFH1-based N-terminal NS5A (NS5A residues 2-107) shuttle vector was constructed by Infusion cloning from two PCR products that were generated using pSG-Neo-JFH1 as a template and the following primers: […]
Purified PCR products were inserted into an NsiI/SnaBI digested pSG-Neo-JFH1 vector by Infusion cloning following the manufacturer's instructions to generate pSG-Neo-JFH1-Nterm_5Ashuttle. […]

Test [6] concerns HCV genotype 1a replicon, NS5A K24E Q30R. Briefly: Transient replication assay, GT1a NS5A K24E Q30R. The following applies: Hepatitis C virus.
Test [7] has as its system HCV genotype 1a replicon, NS5A Y93H. Kind of test: Transient replication assay, GT1a NS5A Y93H. The following applies: Hepatitis C virus.
Test [8] deals with HCV genotype 1a replicon, NS5A K24E Q30K. Kind of test: Transient replication assay, GT1a NS5A K24E Q30K. As to conditions: Hepatitis C virus.

For orientation: EC50 means the concentration giving half of the maximal effect. A high value points to weaker potency. Regarding `COC(=O)N[C@H](C(=O)N1C[C@]2(CCCOC2)C[C@H]1c1ncc(-c2ccc(-c3ccc4c(ccc5nc([C@@H]6C[C@@H]7CCC[C@@H]7N6C(=O)[C@@H](NC(=O)OC)C(C)C)[nH]c54)c3)cc2)[nH]1)C(C)C` [Compound 16], the EC50 amounted to 0.0014 nM in [1]; 0.54 nM in the test on GT2a-3a-S52 replicon; 38 nM in test [2]; 0.046 nM in test [3]; 0.0015 nM in [4]; 0.0012 nM in test [5]. In addition, the EC50 in the test with GT2a-6a-HK6a replicon was 0.002 nM; in test [6] it was 1.8 nM; in test [7] it was 10 nM; in test [8], 7.9 nM.
For `COC(=O)N[C@H](C(=O)N1CCC[C@H]1c1nc(-c2ccc(-c3ccc(-c4c[nH]c([C@@H]5CCCN5C(=O)[C@@H](NC(=O)OC)C(C)C)n4)cc3)cc2)c[nH]1)C(C)C` [Daclatasvir, reference compound], the EC50 in test [1] is 0.0083 nM; in the test on GT2a-3a-S52 replicon, 0.39 nM; in test [2], 243 nM; in test [3] it was 1.9 nM; in test [4], 0.0073 nM; in test [5] it was 0.011 nM. Also, the EC50 worked out at 0.005 nM with GT2a-6a-HK6a replicon, 3.5 nM in test [6], 65 nM in [7] and 20 nM in [8].
